Measurements published in US8729228B2, “Method of producing a modified (poly) peptide” (University of Geneva, priority 2005, dated 2014).
Residues, ends and D or L forms follow the SMILES beside them. *: point of attachment. OBn = c1ccc(CO*)cc1

How the values were obtained:
[1] = test system: α-smooth muscle-actin (α-SMA); test: α-SMA stress fibre assay in α-SMA-EGFP transfected REF-52 cells (confocal microscopy); assay type: cell-based, Rat; conditions: for penetration into the cell, monitored by detection of the expected biological activity: extent measured by comparison with the biological activity of standards
Experimental: FIG. 15: (a) Constructs designed to deliver the Ac-EEED peptide into cells through a semi-permanent carboxy esterification strategy. (b) Rat embryonic fibroblasts (REF-52 cells) transfected with the α-SMA-EGFP construct (Clement et al., J Cell Sci. 118, 1395-1404 (2005)) were trypsinized, plated on coverslips for 1 days in DMEM/2% FCS and treated with SMA-Peptide [Ac-E(OBzl)-E(OBzl)-E(OBzl)-D(OBzl)-K(Ac)-CONH2] (5 μg/ml) for 45 min in DMEM without FCS (37 C, incubator). Cells were the rinsed in DMEM, fixed with 1% PFA, and mounted for confocal microscopy (LSM510, Carl Zeiss) observation. α-SMA-EGFP transfected cells were either untreated (control; left), or treated for 45 minutes with SMA-Peptide [Ac-E(OBzl)-E(OBzl)-E(OBzl)-D(OBzl)-K(Ac)-CONH2] (right).
This example relates to delivery of the peptide using a semi-permanent carboxy esterification strategy of a synthetic peptide incorporating a C-terminal lysine residue, whose carboxy terminus is amidated and whose epsilon amino group is either acetylated or used as a handle to attach a tracer (fluorochrome, biotin, etc, FIG. 15(a)). Four constructs have been tested, varying the lipophilicity of the protecting ester moiety.

[2] = target: α-smooth muscle-actin (α-SMA) (Homo sapiens, UniProt P62736); conditions: microinjection (Chaponnier et al. 1995) and fusion to a PTD (Hinz et al. 2002); cited from earlier work

| Compound | α-SMA positive-stress fibers ([1]; REF-52 cells transfected with α-SMA-EGFP, 5 μg/ml for 45 min in DMEM without FCS, 37 C) | penetration into the cell, monitored by detection of the expected biological activity ([1]; listed as template) | penetration into the cell, monitored by detection of the expected biological activity ([1]; listed as template with the carboxylates esterified with benzyl groups) | blocking polymerisation of α-smooth muscle-actin (α-SMA) [2] |
| --- | --- | --- | --- | --- |
| CC(=O)NCCCC[C@H](NC(=O)[C@H](CC(=O)OCc1ccccc1)NC(=O)[C@H](CCC(=O)OCc1ccccc1)NC(=O)[C@H](CCC(=O)OCc1ccccc1)NC(=O)[C@H](CCC(=O)OCc1ccccc1)NC(C)=O)C(N)=O [SMA-Peptide, Ac-E(OBzl)-E(OBzl)-E(OBzl)-D(OBzl)-K(Ac)-CONH2] (Ac-E(OBn)E(OBn)E(OBn)D(OBn)K(Ac)-NH2) | provokes α-SMA positive-stress fiber disappearance | incomplete | showed penetration into the cell | – |
| Ac-EEED | – | – | – | capable of blocking polymerisation of α-smooth muscle-actin (α-SMA) |
